Entries after “also recorded” stand apart in the source; their conditions may differ. Each block holds one molecule with its values, some of them ahead of it.
Tests used:
SSTR5 = SSTR5 (Homo sapiens, UniProt P35346); assay: SSTR5 agonist potency; format: cell-based
SSTR2 = SSTR2 (Homo sapiens, UniProt P30874); assay: Selectivity for SSTR5 over SSTR2; format: cell-based
[1] = Dynamic Vapor Sorption (DVS); format: physicochemical
Method: Dynamic Vapor Sorption (DVS) was performed using a DVS Intrinsic 1. The sample (10-15 mg) was loaded into a sample pan, suspended from a microbalance and exposed to a humidified stream of nitrogen gas. The sample was held for a minimum of 5 min at each level and only progressed to the next humidity level if there was <0.002% change in weight between measurements (interval: 60 seconds) or 240 min had elapsed. The following program was used: • (1) Equilibration at 50% RH • (2) 50% to 2% (50%, 40%, 30%, 20%, 10% and 2%) • (3) 2% to 95% (2%, 10%, 20%, 30%, 40%, 50%, 60%, 70%, 80%, 90%, 95%) • (4) 95% to 2% (95%, 80%, 70%, 60%, 50%, 40%, 30%, 20%, 10%, 2%) • (5) 2% to 50% (2%, 10%, 20%, 30%, 40%, 50%)

[2] = Thermal stability of crystalline Pattern A (DSC cycling, then XRPD); format: physicochemical
Method: Two samples of Crystalline Pattern A were prepared and cycled in the DSC and then analyzed by XRPD.
The first sample of Pattern A (9.4 mg) was heated from 30° C. to 150° C. and then cooled back to 30° C.
The second sample of Pattern A (14.4 mg) was heated from 30° C. to 118° C. and then cooled back to 30° C. The sample recovered after the DSC experiment appeared as a light-amber pellet that was easily pressed into a powder on the XRPD plate.

[3] = Dry and solvent drop milling, XRPD after milling; format: physicochemical
Method: Dry and solvent drop milling was done using a small Wig-L-Bug ball mill with ¼″ stainless steel ball as milling media. About 25 mg of crystalline Pattern A of Compound 1 was weighed into a milling capsule and one volume of solvent (solvent drop) was added. The milling was carried out at 3,800 rpm in three steps of 30 s each. The solids were recovered after milling and analyzed by XRPD.

[4] = Thermodynamic stability: one-week slurry stability of crystalline Pattern A (XRPD); format: physicochemical
Method: One-week slurry stability studies were performed on crystalline Pattern A in five solvents and solvent systems at room temperature (20-24° C.) and at 10° C. About 25 mg of Compound 1 was weighed into 2 mL vials and the solvent was added to each vial at room temperature with stirring. The solvents and solvent systems used in the experiments were: IPA:water (1:1 vol), THF:heptane (1:2 vol), ACN:heptane (1:2 vol), MIBK:heptane (1:2 vol), and IPAc.
For the IPA:water (1:1 vol) samples, 10 vol. of IPA:water (1:1 vol) was added, whereas 7 vol. were initially added for the other solvent systems. One set of vials was left to stir at room temperature and the other set was transferred to a cold stir plate at 10° C. After 5 days, samples that remained in solutions were seeded with Pattern A (0.5-1 mg) and left to stir for one week.

[5] = Stability of solid state forms on humidity exposure (static storage, XRPD re-analysis); format: physicochemical; conditions: 40° C./75% RH for 7 days
Method: Samples were assessed for stability under static storage conditions of 40° C./75% RH for 7 days. The samples were then re-analyzed by XRPD.

[6] = Stability of crystalline patterns on drying (XRPD); format: physicochemical; conditions: for XRPD after drying on the benchtop: 2 days
Method: Samples of amorphous Compound 1 (either 30 mg/mL or 60 mg/mL) were dissolved in DCM and were allowed to evaporate either at room temperature or 45° C. After stirring for about 40 min, the resulting slurries were filtered and analyzed by XRPD. Pattern B was obtained for the wet cakes of recovered solids. Pattern B changed to C after drying under static vacuum at 50° C. overnight.
In a separate experiment, about 71 mg of amorphous Compound 1 was weighed into a 4 mL vial and 10 vol. (710 μL) of DCM was added at room temperature. After stirring for 5 min, a thin slurry formed. XRPD analysis of a sample taken from the slurry after 1 h confirmed Pattern B. The vial was then transferred to a fridge at 5° C. for ˜3 h and then to a freezer at −20° C. overnight. Small amount of solid settled to the bottom of the vial after cooling at −20° C., the yield was very low, about 6% w/w. XRPD confirmed Pattern B. Pattern B was left to dry on the benchtop at room temperature for 2 days. XRPD analysis on the sample after 2 days confirmed that Pattern B was stable. Thermal analysis on a small sample (0.7 mg) of Pattern B was performed by DSC.
A sample of 48.9 mg of amorphous Compound 1 and 3 vol. (˜150 μL) of MIBK:heptane was prepared at 45° C. A small amount of gummy solid formed after addition of the solvent system. The vial was vortexed and sonicated few times to break the gum and a thin slurry was obtained after 5 min of stirring. The sample was left to stir at 45° C. for about 5 h and then transferred to a stir plate at room temperature. After stirring overnight at room temperature, the sample was filtered and the solid was collected for XRPD analysis. The yield was low, ˜7% w/w.
Thermal analysis on a small sample of Pattern D was performed by DSC.

Sequence of SSTR2 (P30874 whole entry): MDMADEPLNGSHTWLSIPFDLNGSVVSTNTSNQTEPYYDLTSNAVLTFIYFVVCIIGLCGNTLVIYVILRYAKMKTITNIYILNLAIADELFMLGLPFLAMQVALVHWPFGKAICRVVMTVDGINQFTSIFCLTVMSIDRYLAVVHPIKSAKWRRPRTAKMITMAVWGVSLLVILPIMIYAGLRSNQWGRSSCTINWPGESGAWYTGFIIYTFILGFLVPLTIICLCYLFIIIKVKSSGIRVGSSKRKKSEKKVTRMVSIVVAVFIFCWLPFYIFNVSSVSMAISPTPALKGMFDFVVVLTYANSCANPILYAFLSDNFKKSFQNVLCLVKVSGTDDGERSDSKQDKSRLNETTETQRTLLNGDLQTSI
Sequence of SSTR5 (P35346 whole entry): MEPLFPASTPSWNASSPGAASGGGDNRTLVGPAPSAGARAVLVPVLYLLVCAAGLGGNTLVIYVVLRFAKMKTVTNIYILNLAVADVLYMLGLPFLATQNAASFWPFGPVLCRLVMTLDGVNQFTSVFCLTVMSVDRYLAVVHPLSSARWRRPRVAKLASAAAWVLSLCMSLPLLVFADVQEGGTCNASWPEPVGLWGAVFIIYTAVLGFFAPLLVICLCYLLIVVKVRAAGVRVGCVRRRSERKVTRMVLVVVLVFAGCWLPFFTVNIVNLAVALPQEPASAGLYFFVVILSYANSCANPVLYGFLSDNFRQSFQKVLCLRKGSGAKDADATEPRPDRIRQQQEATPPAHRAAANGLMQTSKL

EC50 (SSTR5): < 1 nM
selectivity for SSTR5 over SSTR2 (SSTR2): > 500 fold
Structure (SMILES): C[C@H](NC(=O)c1cnc(C#N)c(-c2cc(F)cc(F)c2)c1N1CC[C@H](N)C1)C(F)(F)F [Compound 1, 4-[(3S)-3-aminopyrrolidin-1-yl]-6-cyano-5-(3,5-difluorophenyl)-N-[(2S)-1,1,1-trifluoropropan-2-yl]pyridine-3-carboxamide]

total mass change between 2 and 95% RH ([1]; DVS, 2 to 95% RH): 0.7%
mass gain from 20 to 75% RH ([1]; DVS, 20 to 75% RH): 0.37%
mass loss from 50 to 2% RH ([1]; DVS, 50 to 2% RH): 0.2%
XRPD pattern after DVS analysis ([1]; sample measured by DVS, 2-95% RH): unchanged after DVS analysis
XRPD after DSC thermal cycling ([2]; heated from 30° C. to 118° C. and cooled back to 30° C.): stable after the DSC treatment
XRPD after DSC thermal cycling ([2]; heated from 30° C. to 150° C. and cooled back to 30° C.): amorphous pattern
crystallinity (XRPD) after solvent milling ([3]; solvent drop milling in IPAc, water, and MIBK): remained stable
XRPD pattern after one-week slurry ([4]; MIBK:heptane (1:2 vol) at 10° C.): Pattern B
XRPD pattern after one-week slurry ([4]; remaining six analysable samples: IPA:water (1:1), THF:heptane (1:2), IPAc, room temperature and 10° C.): Pattern A
XRPD after static storage [5]: no change in the XRPD
Structure (SMILES): C[C@H](NC(=O)c1cnc(C#N)c(-c2cc(F)cc(F)c2)c1N1CC[C@H](N)C1)C(F)(F)F [Pattern A, 4-[(3S)-3-aminopyrrolidin-1-yl]-6-cyano-5-(3,5-difluorophenyl)-N-[(2S)-1,1,1-trifluoropropan-2-yl]pyridine-3-carboxamide]
crystallinity (XRPD) after dry milling ([3]; dry milling, 3,800 rpm, three steps of 30 s): lost after dry milling resulting in amorphous material
XRPD pattern after one-week slurry ([4]; MIBK:heptane (1:2 vol) at room temperature): Pattern A+trace of a new pattern, Pattern D

XRPD after drying on the benchtop ([6]; room temperature): stable
Structure (SMILES): C[C@H](NC(=O)c1cnc(C#N)c(-c2cc(F)cc(F)c2)c1N1CC[C@H](N)C1)C(F)(F)F [Pattern B, 4-[(3S)-3-aminopyrrolidin-1-yl]-6-cyano-5-(3,5-difluorophenyl)-N-[(2S)-1,1,1-trifluoropropan-2-yl]pyridine-3-carboxamide]
XRPD after drying under vacuum at 50° C. ([6]; vacuum, 50° C.): changed to C; also recorded: converted to Pattern C

XRPD after drying under active vacuum at room temperature ([6]; overnight, active vacuum, room temperature): converted to C
XRPD after drying on the benchtop ([6]; room temperature): remained stable
Structure (SMILES): C[C@H](NC(=O)c1cnc(C#N)c(-c2cc(F)cc(F)c2)c1N1CC[C@H](N)C1)C(F)(F)F [Pattern D, 4-[(3S)-3-aminopyrrolidin-1-yl]-6-cyano-5-(3,5-difluorophenyl)-N-[(2S)-1,1,1-trifluoropropan-2-yl]pyridine-3-carboxamide]
